From patent publication US20260055051A1, “Compound with anti-tumor activity, preparation method therefor, and use thereof” (Ocean University of China, priority 2022, published 2026)

How the values were obtained:
[1] = system: human liver cancer cell line HepG2; assay: In vitro tumor cell proliferation inhibition assay (SRB method), HepG2; type: cell-based; conditions: 72 hours; for inhibition at 10 µM: test compounds 10 μM; for inhibition at 10 µM / IC50: SRB; for IC50: mean of triplicate experiments, read-out: IC50 against HepG2
Experimental: (§1) Sulforhodamine B Colorimetric Method (SRB Method) and MTT Colorimetric Method (MTT Method)
(§2) Human lung cancer cell line A549, human liver cancer cell line HepG2, human colon cancer cell line HCT116, human colon cancer cell line HT-29, human leukemia cell line K562, human cervical cancer cell line hela, and human breast cancer cell line MCF-7, all provided by the Shanghai Cell Bank, Chinese Academy of Sciences.
(§3) A549, HepG2, HCT116, HT-29, K562, hela, and MCF-7 cells were cultured respectively in 1640, DMEM, 5A, 5A, 1640, DMEM, and 1640 culture media containing 10 wt % heat-inactivated FBS (fetal bovine serum), 2 mM L-glutamine, 100 U/mL penicillin and […] streptomycin, in a cell incubator at 37° C. and 5 vol % CO2. The medium was replaced every two days. After the A549, HepG2, HCT116, HT-29, hela, and MCF-7 cells were confluent, they were digested with 0.05% (w/v) trypsin-EDTA at 37° C., passaged, and maintained in the logarithmic growth phase suitable for testing. The K562 suspension cells were passaged without digestion, and maintained in the logarithmic growth phase suitable for testing. The A549, HepG2, HCT116, HT-29, K562, hela, and MCF-7 cells in the logarithmic growth phase were inoculated to 96-well plates at 5000, 5000, 5000, 5000, 6000, 5000, 5000 per well, respectively, and cultured at 37° C. for 24 h.
(§4) Then various concentrations of test samples were added. The positive control group was doxorubicin hydrochloride (final concentration was 1 μM), the solvent control group was an equal volume of DMSO, and the blank control group was an equal volume of a culture medium, with 4 replicate wells for each concentration. After the A549, HepG2, HCT116, HT-29, hela, and MCF-7 cells were treated with the test drugs for 72 hours, the cells in each well were fixed with 50% (m/v) cold trichloroacetic acid (TCA) and stained with SRB. Then […] of Tris solution was added, and the OD value at the wavelength of 540 nm was measured using a microplate reader. For K562 cells, after 72 hours of treatment with the test drugs, […] of 5 mg/mL MTT was added, and the cells were incubated at 37° C. for 4 hours. Next, […] of a triplet solution (10% SDS, 5% isobutanol, 12 mM HCl) was added, followed by further incubation for 12 to 20 hours. The OD value at the wavelength of 570 nm was measured using a microplate reader.
(§5) The tumor cell growth inhibition rate was calculated according to the following equation: […]
(§6) in the equation, • OD540 control well is the absorbance of the control group; • OD540 dosing well is the absorbance of the test group.
(§7) IC50 values of the test drugs (calculated by GraphPad Prism 5 software) were the means of the results of triplicate experiments.

[2] = system: human colon cancer cell line HCT116; assay: In vitro tumor cell proliferation inhibition assay (SRB method), HCT116; type: cell-based; conditions: for inhibition at 10 µM: HCT-116, test compounds 10 μM; for inhibition at 10 µM / IC50: SRB; for IC50: HCT-116, 72 hours, mean of triplicate experiments, read-out: IC50 against HCT116
Experimental: as §1, §2, §3, §4, §5, §6, §7

[3] = system: human lung cancer cell line A549; assay: In vitro tumor cell proliferation inhibition assay (SRB method), A549; type: cell-based; conditions: 72 hours; for inhibition at 10 µM: test compounds 10 μM; for inhibition at 10 µM / IC50: SRB; for IC50: mean of triplicate experiments, read-out: IC50 against A549
Experimental: as §1, §2, §3, §4, §5, §6, §7

[4] = system: human breast cancer cell line MCF-7; assay: In vitro tumor cell proliferation inhibition assay (SRB method), MCF-7; type: cell-based; conditions: for IC50: MCF7, 72 hours, SRB, mean of triplicate experiments, read-out: IC50 against MCF-7
Experimental: as §1, §2, §3, §4, §5, §6, §7

[5] = system: A549, HepG2, HCT116, HT-29, K562, hela, and MCF-7 cell lines; assay: In vitro tumor cell proliferation inhibition assay, summary over all 7 types of cells; type: cell-based; conditions: Homo sapiens
Experimental: as §1, §2, §3, §4, §5, §6, §7

[6] = system: human colon cancer cell line HT-29; assay: In vitro tumor cell proliferation inhibition assay (SRB method), HT-29; type: cell-based; conditions: 72 hours; for IC50: SRB, mean of triplicate experiments, read-out: IC50 against HT-29
Experimental: as §1, §2, §3, §4, §5, §6, §7

[7] = system: human cervical cancer cell line hela; assay: In vitro tumor cell proliferation inhibition assay (SRB method), hela; type: cell-based; conditions: 72 hours; for IC50: SRB, mean of triplicate experiments, read-out: IC50 against hela
Experimental: as §1, §2, §3, §4, §5, §6, §7

[8] = system: human leukemia cell line K562; assay: In vitro tumor cell proliferation inhibition assay (MTT method), K562; type: cell-based; conditions: 72 hours; for IC50: mean of triplicate experiments, read-out: IC50 against K562
Experimental: as §1, §2, §3, §4, §5, §6, §7

HCT116 cells = assay: HCT116 cell-BALB/c nude mouse subcutaneous tumor transplantation experiment; type: in vivo, BALB/c nude mice; conditions: HCT116 model; test compound 0.5 mg/mL at 10 mL/kg tail vein, 15 times; 5-fu 20 mg/kg, 6 times
Experimental: (§8) BALB/c nude mice were subcutaneously inoculated with A549, HCT116 and HT-29 cells to establish tumor transplantation models. • Solvent Control Group: 2% DMSO+normal saline+sodium carbonate (the molar ratio of the compound to sodium carbonate is 1:2) • 5-fluorouracil control group: 5-fluorouracil injection (20 mg/kg);
(§9) Test compound group: 1 mg of a test compound was fully dissolved in […] DMSO, and then diluted with normal saline to 0.5 mg/mL. 2 mL was used each time, freshly prepared before use on the same day.
(§10) Eight mice were in each group.
(§11) The solvent control group and the test compound group were administered at a dose of 10 mL/kg via tail vein injection (the dose for each administration was calculated based on the body weight on that day), 5 times a week, for a total of 15 times. The animals were euthanized after the last administration.
(§12) The 5-fluorouracil control group was administered twice a week for a total of 6 times.
(§13) The body weight and tumor diameter were measured twice a week during the administration period. Tumors and the spleen were removed and weighed after euthanasia. The tumor volume, relative tumor volume (RTV), relative tumor growth rate (T/C %), tumor volume inhibition rate (IRTV%), and tumor weight inhibition rate (IRTW%) were calculated. Data for animals that died accidentally were only listed but excluded from statistical analysis.

A549 cells = assay: A549 cell-BALB/c nude mouse subcutaneous tumor transplantation experiment; type: in vivo, BALB/c nude mice; conditions: A549 model, test compound 0.5 mg/mL at 10 mL/kg tail vein, 15 times, 6 times
Experimental: as §8, §9, §10, §11, §12, §13

[9] = read-out: Inhibition rate on HepG2
[10] = 72 hours, read-out: Inhibition rate on HCT116
[11] = read-out: Inhibition rate on A549
[12] = upper bound over A549, HepG2, HCT116, HT-29, K562, hela, MCF-7

IC50 [4] [µM]	IC50 [1] [µM]	IC50 [2] [µM]	IC50 [6] [µM]	IC50 [7] [µM]	IC50 [8] [µM]	IC50 [3] [µM]	Structure (SMILES)	inhibition at 10 µM [1, 9] [%]	inhibition at 10 µM [2, 10] [%]	inhibition at 10 µM [3, 11] [%]	other results
							C=CC(=O)NCc1cc(C(=O)OC)cc(O)c1O [Compound I-18]	73	22.5	10.5	
2.93	3.05	2.74	8.6	3.01	18	7.77	C=CC(=O)NCc1c(O)c(Br)c(O)c(CNC(=O)C=C)c1C(=O)O [Compound I-17]	90.3	91.5	95.8	IC50 [5, 12]: < 35.5 µM
							COC(=O)c1cc(O)c(O)c(O)c1CNC(=O)CCl [Compound I-12, N-(2,3,4-trihydroxy-6-carbomethoxy-benzyl) chloroacetamide]	55.9	47.6	40.9	
> 50	> 50	> 50	> 50	> 50	> 50	4.84	CC(=O)NCc1c(O)c(O)c(O)c(CNC(C)=O)c1C(=O)O [Compound I-2, N-(2,3,4-trihydroxy-5-acetamidomethyl-6-carboxybenzyl) acetamide]	18.4	82	69.9	
							CCCOC(=O)c1cc(O)c(O)c(O)c1CNC(=O)CCl [Compound I-13, N-(2,3,4-trihydroxy-6-propoxycarbonyl-benzyl) chloroacetamide]	55	37.8	29.6	
							COC(=O)c1cc(O)c(O)c(O)c1CNC(C)=O [Compound I-10, N-(2,3,4-trihydroxy-6-carbomethoxy-benzyl) acetamide]	55.8	34.8	38.2	
							COc1cccc2c1C(=O)c1c(O)c3c(c(O)c1C2=O)C[C@@](O)(C(=O)CO)C[C@@H]3O[C@H]1C[C@H](N)[C@H](O)[C@H](C)O1 [doxorubicin, reference compound]				inhibition at 1 µM ([4]; MCF7, doxorubicin 1 μM, 72 hours, read-out: Inhibition rate on MCF-7): 69.1%; inhibition at 1 µM ([1]; doxorubicin 1 μM, read-out: Inhibition rate on HepG2): 78.1%; inhibition at 1 µM ([2]; HCT-116, doxorubicin 1 μM, 72 hours, read-out: Inhibition rate on HCT116): 60.9%; inhibition at 1 µM ([6]; doxorubicin 1 μM, read-out: Inhibition rate on HT-29): 95.3%; inhibition at 1 µM ([7]; doxorubicin 1 μM, read-out: Inhibition rate on hela): 44.3%; inhibition at 1 µM ([8]; doxorubicin 1 μM, read-out: Inhibition rate on K562): 40.8%; inhibition at 1 µM ([3]; doxorubicin 1 μM, read-out: Inhibition rate on A549): 88.8%
							CCCOC(=O)c1cc(O)c(O)c(O)c1CNC(C)=O [Compound I-11, N-(2,3,4-trihydroxy-6-propoxycarbonyl-benzyl) acetamide]	55.5	38.2	32.5	
							C=CC(=O)NCc1cc(CNC(=O)C=C)c(O)c(C(C)=O)c1O [Compound I-15]	33.5	27.7	7.05	
4.6	8.31	4.77	16.6	23.8	> 50	2.73	C=CC(=O)NCc1c(O)c(O)c(O)c(CNC(=O)C=C)c1C(=O)O [Compound I-1, N-(2,3,4-trihydroxy-5-acrylamidomethyl-6-carboxybenzyl) acrylamide]	57.5	92.3	89.3	inhibitory effect (inhibition rate of average tumor weight, FIG. 6) (HCT116 cells): 35.13%; average tumor volume at the end of the experiment (A549 cells; 5 times a week, 5-fu 20 mg/kg twice a week): 539.48 mm^3; inhibitory effect (inhibition rate of average tumor weight, FIG. 6) (A549 cells; 5-fu 20 mg/kg): 33.25%
							C=CC(=O)NCc1c(C(=O)OCCC)cc(O)c(O)c1O [Compound I-9, N-(2,3,4-trihydroxy-6-propoxycarbonyl-benzyl) acrylamide]	51.1	29.1	27.5	
3.74	4.06	5.32	9.39	5.64	6.93	6.32	Cc1c(C)c(CNC(=O)CCl)c(C)c(CNC(=O)CCl)c1O [Compound I-5, N-(2,3,6-trimethyl-4-hydroxy-5-chloroacetamidomethylbenzyl) chloroacetamide]	95.3	97.3	89.5	IC50 [5, 12]: < 35.5 µM; IC50 ([5]; upper bound over all 7 types of cells, compound I-5): < 9.4 µM
							COC(=O)c1cc(O)c(O)c(O)c1CNC(=O)c1ccccc1 [Compound I-14, N-(2,3,4-trihydroxy-6-carbomethoxy-benzyl) benzamide]	1.56	34.1	37.7	
							C=CC(=O)NCc1cc(C(C)=O)c(O)c(CNC(=O)C=C)c1O [Compound I-16]	13	33.9	4.84	
9.73	6.04	5.12	10.7	9.3	14.5	7.4	Cc1c(O)c(CNC(=O)CCl)cc(CNC(=O)CCl)c1O [Compound I-3, N-(2,4-dihydroxy-3-methyl-5-chloroacetamidomethylbenzyl) chloroacetamide]	92.3	76.5	95.9	IC50 [5, 12]: < 35.5 µM
							C=CC(=O)NCc1c(C(=O)OC)cc(O)c(O)c1O [Compound I-8, N-(2,3,4-trihydroxy-6-carbomethoxy-benzyl) acrylamide]	54.8	30.4	28.5	
